Key:
CDK4/Cyclin D1 = target: T1, CDK4/Cyclin D1 (Homo sapiens, UniProt P11802); test: CDK4/CyclinD1 enzymatic activity assay (TR-FRET); assay type: biochemical; details: ATP 2 mM final, read-out: CDK4_D1 IC50
T1 construct: purchased ProQinase; host or cells: insect cell
Protocol: CDK4/CyclinD1 Enzymatic Activity Assay
(§1) The inhibitory activity of compounds was evaluated in vitro using TR-FRET assay with white 384-well low volume microplate (Greiner Bio-One). CDK4/Cyclin D1 catalyzed phosphorylation of peptide in the presence and absence of compounds was measured and used in IC50 determination. Recombinant protein complex CDK4/Cyclin D1, expressed from insect cell, was purchased from ProQinase. Testing compounds were dissolved in DMSO at 1 mM and tested in 9-dose IC50 mode. The reaction mixture was prepared by mixing CDK4/CyclinD1 (1 nM final), ULight-4E-BP1 (100 nM final, Perkinelmer, TRF0128-D), and ATP (2 mM final) in assay buffer (20 mM of HEPES pH 7.4, 1 mM of EGTA, 0.05% BSA, 0.005% Tween 20, and 1 mM TCEP). The compound of interest in DMSO was added to each well in 3-fold serial dilution by dispenser (TECAN D300E) to make a 9.9 μL of reaction mixture. After 20 minutes preincubation at room temperature, 0.1 μL MgCl2 (10 mM final) was added to initiate the reaction. Following a 45 minutes incubation at 37° C., the reaction was stopped by addition of 2 μL of quenching buffer consisting of Lance detection buffer (Perkinelmer CR97-100C), LANCE Ultra Europium-anti-P-4E-BP1 (Perkinelmer, TRF0216-D), EDTA, and incubate at room temperature for additional 60 minutes in dark. The reaction signal was measured by Envision multimode plate reader (PerkinElmer, 2102-0010). IC50 values were determined by fitting the data to the standard 4 parameters with Hill Slope using GraphPad Prism software.

CDK2/Cyclin E2 = CDK2/Cyclin E2 (Homo sapiens, UniProt P24941); test: CDK2/CyclinE2 enzymatic activity assay (TR-FRET); assay type: biochemical; details: ATP 1 mM final, read-out: CDK2_E1 IC50
Protocol: CDK2/CyclinE2 Enzymatic Activity Assay
as §1, with “Bio-One). CDK2/Cyclin E2” for “Bio-One). CDK4/Cyclin D1”, “complex CDK2/Cyclin E2,” for “complex CDK4/Cyclin D1,”, “mixing CDK2/CyclinE2” for “mixing CDK4/CyclinD1”, “ULight-4E-BP1 (50” for “ULight-4E-BP1 (100”, “ATP (1” for “ATP (2”

OVCAR3 p-RB = test: pRB ICW assay in OVCAR3 cells; assay type: cell-based; details: Homo sapiens, OVCAR-3, 2 hours incubation with compound
Protocol: pRB ICW Assay in OVCAR3 Cells
OVCAR3 cells were maintained in RPMI (Corning, Catalog #: 10-040-CV) supplemented with 10% v/v FBS (Gibco, Catalog #: 26140-079), 1% v/v Penicillin Streptomycin (Gibco, Catalog #15140-122.) OVCAR3 cells grown at log phase were trypsinized, counted, and resuspended in fresh medium to reach a final density of 6.7e4 cells/ml and 75 μL of culture were dispensed into a 384-well plate (Falcon, cat #353962) using Multidrop Combi dispenser (Thermo Scientific). The next day, compounds were dispensed as a 9-point, ½ log serial dilution using a Tecan digital dispenser (D300e), and cells were incubated with compound for 2 hours in a humidified incubator at 37° C. A reference compound at a final concentration of 10 μM was used as a control for maximum inhibition. Each compound was tested in duplicates in each experiment. At the end of the incubation, 25 μl of 16% paraformaldehyde (Electron Microscopy, cat #15710) was slowly added to each well and the plate was incubated at room temperature (RT) for 30 minutes to fix cells. Cells were then permeabilized by incubating with 50 μl/well of wash buffer (1×PBS with 0.1% Triton X-100) 5×5 minutes, followed by 1 hour blocking with 30 μl/well of Odyssey blocking buffer (Li—COR, cat #927-40000), all at RT. Anti-phosphor RB antibody (Cell signaling 8516S) was diluted 1:1000 in Odyssey blocking buffer and 20 μl was added to all wells and incubated overnight in 4° C. with gently rocking. The next day, cells were washed 5×5 min with 50 μl/well of wash buffer, followed with 1 hour incubation with secondary antibody and DRAQ5 diluted in Odyssey blocking buffer (1:500 dilution for secondary antibody and 1:2000 dilution for DRAQ5), 5×5 min washes, and one last wash with water. Plates were dried in 37° C. oven for 5 min and scanned using Li—COR Odyssey CLx imaging system to acquire intensities at 700 and 800 nm channels.

T1 sequence (P11802 whole entry): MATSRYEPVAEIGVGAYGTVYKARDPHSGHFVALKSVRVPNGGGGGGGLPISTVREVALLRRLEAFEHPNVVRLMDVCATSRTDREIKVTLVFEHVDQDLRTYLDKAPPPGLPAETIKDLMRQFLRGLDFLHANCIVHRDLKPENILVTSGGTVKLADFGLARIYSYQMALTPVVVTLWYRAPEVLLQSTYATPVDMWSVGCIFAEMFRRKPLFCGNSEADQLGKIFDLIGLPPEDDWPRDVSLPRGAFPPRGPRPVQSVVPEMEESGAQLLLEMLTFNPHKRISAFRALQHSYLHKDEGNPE
T1 sequence (P24385 whole entry partner): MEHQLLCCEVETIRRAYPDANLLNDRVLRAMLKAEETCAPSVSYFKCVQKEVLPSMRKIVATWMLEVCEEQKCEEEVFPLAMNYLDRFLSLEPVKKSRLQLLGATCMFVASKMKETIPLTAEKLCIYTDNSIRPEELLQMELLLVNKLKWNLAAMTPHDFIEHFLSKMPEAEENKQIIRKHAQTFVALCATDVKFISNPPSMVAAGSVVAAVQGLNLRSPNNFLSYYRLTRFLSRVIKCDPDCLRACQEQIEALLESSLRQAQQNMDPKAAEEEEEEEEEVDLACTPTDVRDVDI

SMILES | IC50 (CDK4/Cyclin D1) [nM] | IC50 (CDK2/Cyclin E2) [nM] | IC50 (OVCAR3 p-RB) [nM]
Cc1c(-c2nc(N[C@H]3CCN(S(C)(=O)=O)C[C@H]3F)ncc2F)sc2c1C(=O)NC2(C)C [Example 2, 2-(5-fluoro-2-(((3R,4S)-3-fluoro-1-(methylsulfonyl)piperidin-4-yl)amino)pyrimidin-4-yl)-3,6,6-trimethyl-5,6-dihydro-4H-thieno[2,3-c]pyrrol-4-one] | ≤ 100 | ≤ 100 | ≤ 100
CS(=O)(=O)N1CCC(Nc2ncc(C(F)(F)F)c(-c3cc4c(s3)CNC4=O)n2)CC1 [Example 17, 2-(2-((1-(methylsulfonyl)piperidin-4-yl)amino)-5-(trifluoromethyl)pyrimidin-4-yl)-5,6-dihydro-4H-thieno[2,3-c]pyrrol-4-one] | ≤ 100 | ≤ 100 | ≤ 100
C[C@@H]1CN(S(C)(=O)=O)CC[C@@H]1Nc1ncc(C(F)(F)F)c(-c2cc3c(s2)C(C)(C)NC3=O)n1 [Example 6, 6,6-Dimethyl-2-(2-(((3R,4S)-3-methyl-1-(methylsulfonyl)piperidin-4-yl)amino)-5-(trifluoromethyl)pyrimidin-4-yl)-5,6-dihydro-4H-thieno[2,3-c]pyrrol-4-one] | ≤ 100 | ≤ 100 | ≤ 100
Cc1c(-c2nc(N[C@H]3CCN(S(C)(=O)=O)C[C@H]3C)ncc2F)sc2c1C(=O)NC2(C)C [Example 1, 2-(5-Fluoro-2-(((3R,4S)-3-methyl-1-(methylsulfonyl)piperidin-4-yl)amino)pyrimidin-4-yl)-3,6,6-trimethyl-5,6-dihydro-4H-thieno[2,3-c]pyrrol-4-one] | ≤ 100 | ≤ 100 | ≤ 100
CC1(C)NC(=O)c2cc(-c3nc(N[C@H]4CCN(S(C)(=O)=O)C[C@H]4F)ncc3C(F)(F)F)sc21 [Example 14, 2-(2-(((3R,4S)-3-fluoro-1-(methylsulfonyl)piperidin-4-yl)amino)-5-(trifluoro-methyl)pyrimidin-4-yl)-6,6-dimethyl-5,6-dihydro-4H-thieno[2,3-c]pyrrol-4-one] | ≤ 100 | ≤ 100 | ≤ 100
CC1(C)NC(=O)c2cc(-c3nc(N[C@@H]4CCN(S(C)(=O)=O)C[C@H]4F)ncc3C(F)(F)F)sc21 [Example 13, 2-(2-(((3R,4R)-3-fluoro-1-(methylsulfonyl)piperidin-4-yl)amino)-5-(trifluoro-methyl)pyrimidin-4-yl)-6,6-dimethyl-5,6-dihydro-4H-thieno[2,3-c]pyrrol-4-one] | ≤ 100 | ≤ 100 | ≤ 100

The next lines start with the values.

IC50 (CDK4/Cyclin D1) [nM] | IC50 (CDK2/Cyclin E2) [nM] | IC50 (OVCAR3 p-RB) [nM] | SMILES
100 to 500 | ≤ 100 | 100 to 500 | Cn1cc(S(=O)(=O)N2CCC(Nc3ncc(C(F)(F)F)c(-c4cc5c(s4)C(=O)NC5)n3)CC2)cn1 [Example 23, 2-(2-((1-((1-Methyl-1H-pyrazol-4-yl)sulfonyl)piperidin-4-yl)amino)-5-(trifluoromethyl)pyrimidin-4-yl)-4,5-dihydro-6H-thieno[2,3-c]pyrrol-6-one]
≤ 100 | ≤ 100 | ≤ 100 | Cn1cc(S(=O)(=O)N2CCC(Nc3ncc(C(F)(F)F)c(-c4cc5c(s4)C(C)(C)NC5=O)n3)CC2)cn1 [Example 11, 6,6-dimethyl-2-(2-((1-((1-methyl-1H-pyrazol-4-yl)sulfonyl)piperidin-4-yl)amino)-5-(trifluoro-methyl)pyrimidin-4-yl)-5,6-dihydro-4H-thieno[2,3-c]pyrrol-4-one]
≤ 100 | ≤ 100 | ≤ 100 | C[C@@H]1CN(S(=O)(=O)c2c[nH]cn2)CC[C@@H]1Nc1ncc(C(F)(F)F)c(-c2cc3c(s2)C(C)(C)NC3=O)n1 [Example 10, 2-(2-(((3R,4S)-1-((1H-imidazol-4-yl)sulfonyl)-3-methylpiperidin-4-yl)amino)-5-(trifluoro-methyl)pyrimidin-4-yl)-6,6-dimethyl-5,6-dihydro-4H-thieno[2,3-c]pyrrol-4-one]

From patent US20240352029A1, “CDK Inhibitors And Their Use As Pharmaceuticals” (Prelude Therapeutics Incorporated, priority 2023, published 2024)
